Experimental data from BindingDB's records for doi:10.1016/j.ejmech.2019.01.048 (University of Berne, 2019).
pIC50: −log10 of the molar value.

Biological target: Transient receptor potential cation channel subfamily M member 4 (Homo sapiens, UniProt Q8TD43)
Assay: Inhibition of TRPM4 (unknown origin)

Chain of Transient receptor potential cation channel subfamily M member 4 (Q8TD43 whole entry): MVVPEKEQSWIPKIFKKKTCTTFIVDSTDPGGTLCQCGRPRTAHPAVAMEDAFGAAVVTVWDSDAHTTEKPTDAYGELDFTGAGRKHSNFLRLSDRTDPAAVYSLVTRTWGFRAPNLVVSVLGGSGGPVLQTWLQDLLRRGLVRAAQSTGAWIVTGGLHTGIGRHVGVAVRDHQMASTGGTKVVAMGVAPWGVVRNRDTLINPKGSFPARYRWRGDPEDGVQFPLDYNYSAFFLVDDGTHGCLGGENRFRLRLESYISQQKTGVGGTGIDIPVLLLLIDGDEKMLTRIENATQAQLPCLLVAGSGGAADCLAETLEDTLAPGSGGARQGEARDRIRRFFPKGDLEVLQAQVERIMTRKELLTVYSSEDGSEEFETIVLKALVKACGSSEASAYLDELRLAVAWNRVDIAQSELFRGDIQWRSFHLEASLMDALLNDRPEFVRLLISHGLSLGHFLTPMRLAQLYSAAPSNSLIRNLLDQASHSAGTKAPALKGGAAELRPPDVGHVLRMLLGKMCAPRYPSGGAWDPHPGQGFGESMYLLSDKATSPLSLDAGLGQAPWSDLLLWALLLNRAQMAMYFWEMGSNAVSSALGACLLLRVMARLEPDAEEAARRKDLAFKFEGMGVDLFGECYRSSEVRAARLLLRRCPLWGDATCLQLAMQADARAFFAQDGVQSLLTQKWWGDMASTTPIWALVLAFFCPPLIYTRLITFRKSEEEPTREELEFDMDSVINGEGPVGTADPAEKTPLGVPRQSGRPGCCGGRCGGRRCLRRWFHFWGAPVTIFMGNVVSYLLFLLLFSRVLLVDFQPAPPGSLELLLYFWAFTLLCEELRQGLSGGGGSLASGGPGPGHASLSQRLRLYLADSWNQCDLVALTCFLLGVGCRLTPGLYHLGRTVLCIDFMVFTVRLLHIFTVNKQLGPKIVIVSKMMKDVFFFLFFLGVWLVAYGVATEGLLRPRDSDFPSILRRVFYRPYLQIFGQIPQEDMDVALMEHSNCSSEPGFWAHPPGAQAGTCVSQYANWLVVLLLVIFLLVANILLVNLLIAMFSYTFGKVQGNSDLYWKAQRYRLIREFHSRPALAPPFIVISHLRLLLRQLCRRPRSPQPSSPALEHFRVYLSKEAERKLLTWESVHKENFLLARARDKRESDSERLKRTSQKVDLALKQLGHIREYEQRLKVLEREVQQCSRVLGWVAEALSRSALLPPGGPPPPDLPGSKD

Oc1cc2ccccc2c2ccccc12
pIC50: 4.54
